Experimental data: patent US20210393811A1, “Imaging Agents and Methods of Use” (Texas Heart Institute, priority 2018, published 2021)

Assays:
integrin α4β1 [1] = molecular target: T1, integrin α4β1 (Homo sapiens, UniProt P05556+P13612); assay: K562(α4β1) cell adhesion to CS-1; format: cell-based; set-up: expressed in transfected cells; host or cells: K562(α4β1) cells
Excerpt: A. Structure of TBC3486. B. Structure of THI0510 (TBC3486 modified with conjugatable linker [TBC3486-conj] for functionalization with reactive dye and/or chelator reagents). C. TBC3486 and THI0510 inhibition of α4β1-K562 cell adhesion to the CS-1 sequence from fibronectin.
A. Conjugated THI375 analogue. B. THI375 analogue conjugated to the fluorescent dye sulfo-Cy5 (THI526). C. Activity of THI527, THI526, and TBC-4746 in K562-α4β1/CS-1 adhesion assays performed in Mn++.
First attempts to generate an integrin α4β1 imaging agent took advantage of the TBC3486 core scaffold. Modifications to the core scaffold were generated to determine an appropriate site to which imaging conjugates could be attached (FIG. 1). […] Next, imaging agents were attached to this conjugation site and their activities tested in cell adhesion assays.

murine integrin α4β1 [2] = molecular target: T2, murine integrin α4β1 (Mus musculus, UniProt P09055+Q00651); assay: 70Z3 cell adhesion to VCAM-1; format: cell-based
T2 construct: endogenous in cells; host or cells: 70Z3 cells
T2 sequence (Q00651 41-1039): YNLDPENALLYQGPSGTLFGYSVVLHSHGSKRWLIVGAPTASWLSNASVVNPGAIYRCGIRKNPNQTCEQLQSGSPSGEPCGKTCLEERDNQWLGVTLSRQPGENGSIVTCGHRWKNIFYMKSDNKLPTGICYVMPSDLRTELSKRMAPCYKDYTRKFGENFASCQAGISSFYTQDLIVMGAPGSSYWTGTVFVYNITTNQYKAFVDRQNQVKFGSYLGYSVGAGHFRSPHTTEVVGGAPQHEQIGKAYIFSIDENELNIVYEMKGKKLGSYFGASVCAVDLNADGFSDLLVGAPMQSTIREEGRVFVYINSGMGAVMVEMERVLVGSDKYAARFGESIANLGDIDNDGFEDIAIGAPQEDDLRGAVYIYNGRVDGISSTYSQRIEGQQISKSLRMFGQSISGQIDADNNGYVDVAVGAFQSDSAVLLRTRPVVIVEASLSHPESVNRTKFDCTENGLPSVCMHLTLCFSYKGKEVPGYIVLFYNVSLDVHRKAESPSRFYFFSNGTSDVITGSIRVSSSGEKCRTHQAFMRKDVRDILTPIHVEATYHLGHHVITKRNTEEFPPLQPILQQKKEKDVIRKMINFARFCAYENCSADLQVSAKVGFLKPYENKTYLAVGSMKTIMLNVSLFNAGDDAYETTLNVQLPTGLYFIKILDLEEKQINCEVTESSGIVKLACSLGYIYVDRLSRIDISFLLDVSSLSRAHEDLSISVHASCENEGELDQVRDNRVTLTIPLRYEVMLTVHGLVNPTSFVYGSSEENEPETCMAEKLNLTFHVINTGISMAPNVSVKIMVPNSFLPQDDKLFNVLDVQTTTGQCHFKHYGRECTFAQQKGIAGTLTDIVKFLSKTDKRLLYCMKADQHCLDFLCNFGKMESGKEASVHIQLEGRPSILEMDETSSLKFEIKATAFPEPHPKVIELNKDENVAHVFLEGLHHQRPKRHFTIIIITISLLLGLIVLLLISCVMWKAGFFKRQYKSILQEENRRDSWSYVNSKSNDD
T2 sequence (P09055 21-798): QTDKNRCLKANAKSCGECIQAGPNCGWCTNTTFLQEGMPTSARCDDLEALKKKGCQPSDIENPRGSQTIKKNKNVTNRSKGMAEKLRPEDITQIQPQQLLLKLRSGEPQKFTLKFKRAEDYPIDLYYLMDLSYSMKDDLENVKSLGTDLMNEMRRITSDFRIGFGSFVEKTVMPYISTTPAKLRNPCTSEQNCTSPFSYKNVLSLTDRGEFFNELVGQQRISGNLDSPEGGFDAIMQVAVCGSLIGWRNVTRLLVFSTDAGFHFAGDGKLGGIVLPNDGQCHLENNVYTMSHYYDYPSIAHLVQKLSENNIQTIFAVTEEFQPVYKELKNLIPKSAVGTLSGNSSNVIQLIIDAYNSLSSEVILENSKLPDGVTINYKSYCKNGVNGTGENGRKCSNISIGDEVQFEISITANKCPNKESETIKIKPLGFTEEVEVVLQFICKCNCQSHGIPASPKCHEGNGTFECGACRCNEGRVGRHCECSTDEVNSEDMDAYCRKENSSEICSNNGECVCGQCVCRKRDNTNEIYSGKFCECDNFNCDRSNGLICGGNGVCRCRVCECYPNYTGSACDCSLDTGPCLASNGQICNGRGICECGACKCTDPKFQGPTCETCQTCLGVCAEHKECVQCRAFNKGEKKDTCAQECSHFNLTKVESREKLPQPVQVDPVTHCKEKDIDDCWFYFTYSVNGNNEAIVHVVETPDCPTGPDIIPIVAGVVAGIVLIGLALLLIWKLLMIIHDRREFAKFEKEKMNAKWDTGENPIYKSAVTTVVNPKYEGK

integrin α4β1 [3] = molecular target: T1, integrin α4β1; assay: K562(α4β1) cell adhesion to VCAM-1; format: cell-based; set-up: expressed in transfected cells; host or cells: K562(α4β1) cells
Protocol: A, B. Structure of THI520 and THI528. C. THI520 and THI0528 inhibition of α4β1-K562 cell adhesion to VCAM-1 (Mn++).
(§1) The core of this structure is different than that of TBC3486 (FIG. 3A). […] THI528 was tested for binding to integrin α4β1by flow cytometry (FIG. 4). Jurkat cells that express the integrin α4β1 (Jurkat(α4β1)), or mutagenized Jurkat cells that no longer express the integrin α4β1 (Jurkat(α4^null)), where incubated with increasing concentrations of THI528.

integrin α4β1 [4] = molecular target: T1, integrin α4β1; assay: Flow cytometry binding to K562(α4β1) cells; set-up: expressed in transfected cells; host or cells: K562(α4β1) cells; conditions: cations Mn
integrin α4β1 [5] = molecular target: T1, integrin α4β1; assay: Flow cytometry binding to Jurkat cells; conditions: for IC50: Jurkat, Flow Cytometry, Human
Protocol: B. Individual histograms of 10 nM dose of THI528±EDTA.
as §1

murine integrin α4β1 [6] = molecular target: T2, murine integrin α4β1; assay: Flow cytometry binding to 70Z3 cells; conditions: 70Z3, Flow Cytometry, cations Mn
[7] = K562(α4β1), substrate CS-1, cations Mn, Human
[8] = 70Z3, substrate VCAM-1, cations Ca/Mg
[9] = 70Z3, substrate VCAM-1, cations Mn
[10] = K562(α4β1), substrate VCAM-1, cations Ca/Mg, Human (low affinity α4β1 adhesion assay), read-out: Activity (IC50) (converted)

T1 sequence (P13612 34-1032): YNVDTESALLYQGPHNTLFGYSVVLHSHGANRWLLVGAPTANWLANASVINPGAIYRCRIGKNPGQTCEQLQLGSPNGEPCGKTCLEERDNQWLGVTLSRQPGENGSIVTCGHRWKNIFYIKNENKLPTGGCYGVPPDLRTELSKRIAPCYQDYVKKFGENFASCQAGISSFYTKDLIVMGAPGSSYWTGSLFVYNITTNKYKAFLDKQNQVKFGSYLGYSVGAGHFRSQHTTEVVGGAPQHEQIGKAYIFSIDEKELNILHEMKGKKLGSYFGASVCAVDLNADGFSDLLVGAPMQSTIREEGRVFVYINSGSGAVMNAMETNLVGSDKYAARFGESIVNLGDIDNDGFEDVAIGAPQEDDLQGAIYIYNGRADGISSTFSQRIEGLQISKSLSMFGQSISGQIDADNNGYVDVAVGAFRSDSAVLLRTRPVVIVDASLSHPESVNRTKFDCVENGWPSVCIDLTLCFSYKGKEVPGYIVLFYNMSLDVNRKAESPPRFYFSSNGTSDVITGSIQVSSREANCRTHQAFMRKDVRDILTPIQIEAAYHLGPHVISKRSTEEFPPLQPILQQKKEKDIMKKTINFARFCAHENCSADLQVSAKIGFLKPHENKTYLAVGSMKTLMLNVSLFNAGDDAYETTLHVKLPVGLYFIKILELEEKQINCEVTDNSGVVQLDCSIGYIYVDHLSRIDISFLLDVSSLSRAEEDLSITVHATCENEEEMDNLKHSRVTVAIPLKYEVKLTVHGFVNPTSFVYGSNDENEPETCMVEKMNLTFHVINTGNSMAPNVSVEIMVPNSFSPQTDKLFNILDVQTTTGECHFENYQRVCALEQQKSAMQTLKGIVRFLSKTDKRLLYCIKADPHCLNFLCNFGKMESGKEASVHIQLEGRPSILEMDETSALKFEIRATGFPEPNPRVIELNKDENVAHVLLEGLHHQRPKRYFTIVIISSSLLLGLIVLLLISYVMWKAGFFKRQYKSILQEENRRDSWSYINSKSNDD
T1 sequence (P05556 21-798): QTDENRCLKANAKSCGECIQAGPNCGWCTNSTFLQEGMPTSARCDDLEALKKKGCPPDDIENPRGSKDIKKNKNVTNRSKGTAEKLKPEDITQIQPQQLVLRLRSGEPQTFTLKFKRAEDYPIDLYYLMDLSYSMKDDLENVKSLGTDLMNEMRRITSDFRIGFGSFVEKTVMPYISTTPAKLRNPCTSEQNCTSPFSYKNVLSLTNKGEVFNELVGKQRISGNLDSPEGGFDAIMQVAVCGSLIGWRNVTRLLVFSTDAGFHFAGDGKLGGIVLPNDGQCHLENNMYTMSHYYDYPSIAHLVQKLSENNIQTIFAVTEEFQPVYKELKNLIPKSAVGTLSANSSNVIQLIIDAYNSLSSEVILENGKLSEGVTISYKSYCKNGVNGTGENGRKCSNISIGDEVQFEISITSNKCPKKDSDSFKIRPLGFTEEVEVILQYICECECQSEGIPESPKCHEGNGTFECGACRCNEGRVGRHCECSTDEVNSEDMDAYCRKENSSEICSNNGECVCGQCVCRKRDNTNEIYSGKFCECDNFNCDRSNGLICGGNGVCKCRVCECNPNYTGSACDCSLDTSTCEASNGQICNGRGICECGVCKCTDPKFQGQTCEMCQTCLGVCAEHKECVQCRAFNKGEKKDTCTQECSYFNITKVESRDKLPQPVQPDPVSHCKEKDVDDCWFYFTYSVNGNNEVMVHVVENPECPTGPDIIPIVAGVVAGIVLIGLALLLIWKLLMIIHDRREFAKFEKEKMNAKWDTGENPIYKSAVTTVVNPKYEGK

Cc1ccc([C@H](CC(=O)O)NC(=O)Nc2c(O)c(C)cn(Cc3ccccc3Cl)c2=O)cc1 [THI375]
IC50 (integrin α4β1 [1]; [7]): 2.2 ± 0.53 nM | IC50 (murine integrin α4β1 [2]; [8]): 10300 nM | IC50 (murine integrin α4β1 [2]; [9]): 127 nM | IC50 (integrin α4β1 [3]; [10]): 810 nM | IC50 (integrin α4β1 [3]; K562(α4β1), substrate VCAM-1, cations Mn, Human, read-out: Activity (IC50) (converted)): 1.4 nM

C[N+]1=C(/C=C/C=C/C=C2/N(CCCCCC(=O)NCCCCCC(=O)NCCCC[C@@H](NC(=O)N[C@H](CC(=O)O)c3ccc4c(c3)OCO4)C(=O)N(Cc3cccs3)Cc3cccs3)c3ccc(S(=O)(=O)[O-])cc3C2(C)C)C(C)(C)c2cc(S(=O)(=O)O)ccc21 [THI517]
IC50 (integrin α4β1 [1]; [7]): 1700 ± 1000 nM | IC50 (integrin α4β1 [4]): > 1000 nM

CCOc1cccc([C@H](CC(=O)[O-])NC(=O)Nc2c([O-])c(C)cn(Cc3c(Cl)cccc3OCC)c2=O)c1.[Na+].[Na+] [THI520]
IC50 (integrin α4β1 [1]; [7]): 0.11 ± 0.04 nM | activity in high affinity assays (integrin α4β1 [1]; high affinity α4β1 adhesion assays): pM activity | IC50 (murine integrin α4β1 [2]; [8]): 129 nM | IC50 (murine integrin α4β1 [2]; [9]): 0.75 nM | IC50 (integrin α4β1 [3]; [10]): 6.3 ± 3.1 nM

CCOc1cccc([C@H](CC(=O)O)NC(=O)Nc2c(OCCCCCCNC(=O)CCCCC[N+]3=C(/C=C/C=C/C=C4/N(C)c5ccc(S(=O)(=O)[O-])cc5C4(C)C)C(C)(C)c4cc(S(=O)(=O)[O-])ccc43)c(C)cn(Cc3c(Cl)cccc3OCC)c2=O)c1.[Na+] [THI528]
Kd (integrin α4β1 [5]; Jurkat(α4β1) cells, flow cytometry, n=1, read-out: apparent Kd): 0.26 nM | IC50 (integrin α4β1 [5]; cations Ca/Mg): 0.202 nM | IC50 (integrin α4β1 [5]; cations Mn): 0.069 nM | binding to Jurkat cells expressing α4β1 (integrin α4β1 [5]; flow cytometry, increasing concentrations): Specific and saturable binding | binding in presence of EDTA or to Jurkat cells lacking α4β1 (integrin α4β1 [5]; flow cytometry, EDTA or Jurkat(α4β1) cells as printed): no detectable binding | antagonist activity after conjugation to sulfo-Cy5 (integrin α4β1 [3]; compared with THI520): no apparent loss in antagonist activity | IC50 (integrin α4β1 [3]; n=3, same value as Table 2 K562(α4β1)/VCAM-1/Mn, read-out: a4b1 IC50): 0.519 ± 0.097 nM | IC50 (murine integrin α4β1 [6]): 0.06 nM

C[N+]1=C(/C=C/C=C/C=C2/N(CCCCCC(=O)NCCCCCC(=O)O)c3ccc(S(=O)(=O)[O-])cc3C2(C)C)C(C)(C)c2cc(S(=O)(=O)[O-])ccc21.[Na+] [THI529]
Activity (IC50) (integrin α4β1 [1]; K562(α4β1), substrate CS-1, cations Mn, Human, result in words): No Activity (n = 3) K562(α4β1)

CCOc1cccc([C@H](CC(=O)O)NC(=O)Nc2c(OCCCCCCNC(=O)C(CNC(=O)C(CNC(=O)CCCCC[N+]3=C(/C=C/C=C/C=C4/N(C)c5ccc(S(=O)(=O)[O-])cc5C4(C)C)C(C)(C)c4cc(S(=O)(=O)O)ccc43)S(=O)(=O)O)S(=O)(=O)O)c(C)cn(Cc3c(Cl)cccc3OCC)c2=O)c1 (stereo partly shown) [THI540]
IC50 (integrin α4β1 [5]; cations Mn): 0.078 ± 0.037 nM
